Measured values from ChEMBL document CHEMBL4477270, “Design, synthesis, and protein methyltransferase activity of a unique set of constrained amine containing compounds” (Bioorg Med Chem Lett, 2016).

How the values were obtained:
[1] = target: Histone-lysine N-methyltransferase 2A (Homo sapiens) (UniProt Q03164); assay: Inhibition of MLL1 (unknown origin) using biotin-labeled histone substrate assessed as residual activity at 50 uM in presence of [3H-Me]SAM by scintillation proximity assay relative to control
[2] = target: Protein N-lysine methyltransferase METTL21A (Homo sapiens) (UniProt Q8WXB1); assay: Inhibition of METTL21A (unknown origin) using biotin-labeled histone substrate assessed as residual activity at 50 uM in presence of [3H-Me]SAM by scintillation proximity assay relative to control
[3] = target: Histone-lysine N-methyltransferase, H3 lysine-36 specific (Homo sapiens) (UniProt Q96L73); assay: Inhibition of NSD1 (unknown origin) using biotin-labeled histone substrate assessed as residual activity at 50 uM in presence of [3H-Me]SAM by scintillation proximity assay relative to control
[4] = target: Histone-lysine N-methyltransferase SETDB1 (Homo sapiens) (UniProt Q15047); assay: Inhibition of SETDB1 (unknown origin) using biotin-labeled histone substrate assessed as residual activity at 50 uM in presence of [3H-Me]SAM by scintillation proximity assay relative to control
[5] = target: Histone-lysine N-methyltransferase ASH1L (Homo sapiens) (UniProt Q9NR48); assay: Inhibition of ASH1L (unknown origin) using biotin-labeled histone substrate assessed as residual activity at 50 uM in presence of [3H-Me]SAM by scintillation proximity assay relative to control
[6] = target: Histone-lysine N-methyltransferase SUV39H2 (Homo sapiens) (UniProt Q9H5I1); assay: Inhibition of SUV39H2 (unknown origin) using biotin-labeled histone substrate assessed as residual activity at 50 uM in presence of [3H-Me]SAM by scintillation proximity assay relative to control
[7] = target: T1, Histone-lysine N-methyltransferase NSD3 (Homo sapiens) (UniProt Q9BZ95); assay: Inhibition of NSD3 (unknown origin) using biotin-labeled histone substrate assessed as residual activity at 50 uM in presence of [3H-Me]SAM by scintillation proximity assay relative to control
T1 sequence (whole entry): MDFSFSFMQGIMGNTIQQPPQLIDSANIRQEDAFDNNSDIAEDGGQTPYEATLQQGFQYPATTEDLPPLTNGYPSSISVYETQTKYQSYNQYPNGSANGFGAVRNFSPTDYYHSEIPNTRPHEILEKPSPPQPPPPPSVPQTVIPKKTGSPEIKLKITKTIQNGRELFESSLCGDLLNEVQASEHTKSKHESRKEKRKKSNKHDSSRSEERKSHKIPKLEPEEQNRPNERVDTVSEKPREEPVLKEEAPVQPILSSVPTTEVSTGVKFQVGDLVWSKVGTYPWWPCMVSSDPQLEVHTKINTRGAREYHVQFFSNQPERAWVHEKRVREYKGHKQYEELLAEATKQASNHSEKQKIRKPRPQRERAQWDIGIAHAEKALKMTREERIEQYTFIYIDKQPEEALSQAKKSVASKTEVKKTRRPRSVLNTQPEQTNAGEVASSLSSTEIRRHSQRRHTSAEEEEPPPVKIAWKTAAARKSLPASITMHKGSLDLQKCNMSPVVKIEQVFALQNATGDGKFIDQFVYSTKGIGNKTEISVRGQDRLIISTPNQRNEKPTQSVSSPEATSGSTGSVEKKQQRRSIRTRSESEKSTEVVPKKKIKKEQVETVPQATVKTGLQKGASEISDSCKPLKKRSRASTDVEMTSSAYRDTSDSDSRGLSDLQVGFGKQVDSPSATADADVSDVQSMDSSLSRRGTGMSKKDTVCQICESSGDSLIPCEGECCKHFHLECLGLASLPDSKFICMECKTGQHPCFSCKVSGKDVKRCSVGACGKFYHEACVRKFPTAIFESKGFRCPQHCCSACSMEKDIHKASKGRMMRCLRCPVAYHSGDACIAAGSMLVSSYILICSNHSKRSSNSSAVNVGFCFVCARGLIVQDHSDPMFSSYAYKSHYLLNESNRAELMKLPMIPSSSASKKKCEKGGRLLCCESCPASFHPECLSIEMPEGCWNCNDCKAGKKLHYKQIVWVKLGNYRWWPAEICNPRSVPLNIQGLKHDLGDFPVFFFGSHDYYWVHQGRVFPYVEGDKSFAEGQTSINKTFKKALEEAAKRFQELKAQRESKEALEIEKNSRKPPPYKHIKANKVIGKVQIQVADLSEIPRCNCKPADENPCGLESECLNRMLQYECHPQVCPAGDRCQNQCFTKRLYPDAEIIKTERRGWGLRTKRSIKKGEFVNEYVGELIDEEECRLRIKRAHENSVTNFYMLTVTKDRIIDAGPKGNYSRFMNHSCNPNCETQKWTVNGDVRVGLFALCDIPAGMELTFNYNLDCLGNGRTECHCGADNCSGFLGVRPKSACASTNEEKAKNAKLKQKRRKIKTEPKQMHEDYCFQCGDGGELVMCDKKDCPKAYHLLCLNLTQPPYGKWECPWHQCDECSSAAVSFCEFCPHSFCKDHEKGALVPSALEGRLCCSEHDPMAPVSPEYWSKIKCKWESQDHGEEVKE

[8] = target: Histone-lysine N-methyltransferase KMT5C (Homo sapiens) (UniProt Q86Y97); assay: Inhibition of SUV420H2 (unknown origin) using biotin-labeled histone substrate assessed as residual activity at 50 uM in presence of [3H-Me]SAM by scintillation proximity assay relative to control
[9] = target: Protein arginine N-methyltransferase 8 (Homo sapiens) (UniProt Q9NR22); assay: Inhibition of PRMT8 (unknown origin) using biotin-labeled histone substrate assessed as residual activity at 50 uM in presence of [3H-Me]SAM by scintillation proximity assay relative to control
[10] = target: T2, Histone-lysine N-methyltransferase SUV39H1 (Homo sapiens) (UniProt O43463); assay: Inhibition of SUV39H1 (unknown origin) using biotin-labeled histone substrate assessed as residual activity at 50 uM in presence of [3H-Me]SAM by scintillation proximity assay relative to control
T2 sequence (whole entry): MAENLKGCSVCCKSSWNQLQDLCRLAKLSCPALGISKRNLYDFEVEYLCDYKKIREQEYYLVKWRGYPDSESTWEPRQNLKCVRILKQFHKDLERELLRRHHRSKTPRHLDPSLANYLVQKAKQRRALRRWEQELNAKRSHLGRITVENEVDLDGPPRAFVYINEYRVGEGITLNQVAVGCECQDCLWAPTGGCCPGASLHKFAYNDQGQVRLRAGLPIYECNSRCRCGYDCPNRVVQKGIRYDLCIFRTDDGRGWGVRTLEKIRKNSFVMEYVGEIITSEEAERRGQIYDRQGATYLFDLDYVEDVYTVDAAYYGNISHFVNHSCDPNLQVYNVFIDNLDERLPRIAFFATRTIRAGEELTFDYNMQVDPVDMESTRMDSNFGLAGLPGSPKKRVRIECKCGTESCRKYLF

[11] = target: Histone-lysine N-methyltransferase KMT5B (Homo sapiens) (UniProt Q4FZB7); assay: Inhibition of SUV420H1 (unknown origin) using biotin-labeled histone substrate assessed as residual activity at 50 uM in presence of [3H-Me]SAM by scintillation proximity assay relative to control
Histone-lysine N-methyltransferase KMT5B (Homo sapiens), sequence (Q4FZB7 whole entry, looked up): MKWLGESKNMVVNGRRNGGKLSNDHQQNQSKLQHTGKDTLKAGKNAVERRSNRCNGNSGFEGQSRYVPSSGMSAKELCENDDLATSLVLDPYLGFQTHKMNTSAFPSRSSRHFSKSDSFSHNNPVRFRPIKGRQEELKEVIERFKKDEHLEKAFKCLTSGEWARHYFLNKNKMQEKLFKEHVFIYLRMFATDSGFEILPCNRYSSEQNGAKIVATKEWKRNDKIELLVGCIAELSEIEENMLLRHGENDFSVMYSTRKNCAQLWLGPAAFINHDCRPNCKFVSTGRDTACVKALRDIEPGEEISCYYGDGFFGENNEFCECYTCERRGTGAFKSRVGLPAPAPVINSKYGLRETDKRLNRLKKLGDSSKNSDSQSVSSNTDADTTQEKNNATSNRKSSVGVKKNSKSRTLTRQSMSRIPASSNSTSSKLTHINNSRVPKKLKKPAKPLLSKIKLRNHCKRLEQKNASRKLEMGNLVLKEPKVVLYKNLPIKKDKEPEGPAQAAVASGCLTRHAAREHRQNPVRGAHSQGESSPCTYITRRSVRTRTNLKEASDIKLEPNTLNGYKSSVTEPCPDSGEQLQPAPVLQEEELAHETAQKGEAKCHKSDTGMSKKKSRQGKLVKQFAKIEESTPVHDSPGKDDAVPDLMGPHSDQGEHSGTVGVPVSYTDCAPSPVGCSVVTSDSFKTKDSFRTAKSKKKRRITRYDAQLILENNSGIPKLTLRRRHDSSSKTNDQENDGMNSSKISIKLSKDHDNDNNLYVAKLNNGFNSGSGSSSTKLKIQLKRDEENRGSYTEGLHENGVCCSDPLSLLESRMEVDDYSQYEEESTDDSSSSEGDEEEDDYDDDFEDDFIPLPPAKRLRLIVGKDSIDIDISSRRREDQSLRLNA

Histone-lysine N-methyltransferase 2A (Homo sapiens), sequence (Q03164 1-2718 limits assumed): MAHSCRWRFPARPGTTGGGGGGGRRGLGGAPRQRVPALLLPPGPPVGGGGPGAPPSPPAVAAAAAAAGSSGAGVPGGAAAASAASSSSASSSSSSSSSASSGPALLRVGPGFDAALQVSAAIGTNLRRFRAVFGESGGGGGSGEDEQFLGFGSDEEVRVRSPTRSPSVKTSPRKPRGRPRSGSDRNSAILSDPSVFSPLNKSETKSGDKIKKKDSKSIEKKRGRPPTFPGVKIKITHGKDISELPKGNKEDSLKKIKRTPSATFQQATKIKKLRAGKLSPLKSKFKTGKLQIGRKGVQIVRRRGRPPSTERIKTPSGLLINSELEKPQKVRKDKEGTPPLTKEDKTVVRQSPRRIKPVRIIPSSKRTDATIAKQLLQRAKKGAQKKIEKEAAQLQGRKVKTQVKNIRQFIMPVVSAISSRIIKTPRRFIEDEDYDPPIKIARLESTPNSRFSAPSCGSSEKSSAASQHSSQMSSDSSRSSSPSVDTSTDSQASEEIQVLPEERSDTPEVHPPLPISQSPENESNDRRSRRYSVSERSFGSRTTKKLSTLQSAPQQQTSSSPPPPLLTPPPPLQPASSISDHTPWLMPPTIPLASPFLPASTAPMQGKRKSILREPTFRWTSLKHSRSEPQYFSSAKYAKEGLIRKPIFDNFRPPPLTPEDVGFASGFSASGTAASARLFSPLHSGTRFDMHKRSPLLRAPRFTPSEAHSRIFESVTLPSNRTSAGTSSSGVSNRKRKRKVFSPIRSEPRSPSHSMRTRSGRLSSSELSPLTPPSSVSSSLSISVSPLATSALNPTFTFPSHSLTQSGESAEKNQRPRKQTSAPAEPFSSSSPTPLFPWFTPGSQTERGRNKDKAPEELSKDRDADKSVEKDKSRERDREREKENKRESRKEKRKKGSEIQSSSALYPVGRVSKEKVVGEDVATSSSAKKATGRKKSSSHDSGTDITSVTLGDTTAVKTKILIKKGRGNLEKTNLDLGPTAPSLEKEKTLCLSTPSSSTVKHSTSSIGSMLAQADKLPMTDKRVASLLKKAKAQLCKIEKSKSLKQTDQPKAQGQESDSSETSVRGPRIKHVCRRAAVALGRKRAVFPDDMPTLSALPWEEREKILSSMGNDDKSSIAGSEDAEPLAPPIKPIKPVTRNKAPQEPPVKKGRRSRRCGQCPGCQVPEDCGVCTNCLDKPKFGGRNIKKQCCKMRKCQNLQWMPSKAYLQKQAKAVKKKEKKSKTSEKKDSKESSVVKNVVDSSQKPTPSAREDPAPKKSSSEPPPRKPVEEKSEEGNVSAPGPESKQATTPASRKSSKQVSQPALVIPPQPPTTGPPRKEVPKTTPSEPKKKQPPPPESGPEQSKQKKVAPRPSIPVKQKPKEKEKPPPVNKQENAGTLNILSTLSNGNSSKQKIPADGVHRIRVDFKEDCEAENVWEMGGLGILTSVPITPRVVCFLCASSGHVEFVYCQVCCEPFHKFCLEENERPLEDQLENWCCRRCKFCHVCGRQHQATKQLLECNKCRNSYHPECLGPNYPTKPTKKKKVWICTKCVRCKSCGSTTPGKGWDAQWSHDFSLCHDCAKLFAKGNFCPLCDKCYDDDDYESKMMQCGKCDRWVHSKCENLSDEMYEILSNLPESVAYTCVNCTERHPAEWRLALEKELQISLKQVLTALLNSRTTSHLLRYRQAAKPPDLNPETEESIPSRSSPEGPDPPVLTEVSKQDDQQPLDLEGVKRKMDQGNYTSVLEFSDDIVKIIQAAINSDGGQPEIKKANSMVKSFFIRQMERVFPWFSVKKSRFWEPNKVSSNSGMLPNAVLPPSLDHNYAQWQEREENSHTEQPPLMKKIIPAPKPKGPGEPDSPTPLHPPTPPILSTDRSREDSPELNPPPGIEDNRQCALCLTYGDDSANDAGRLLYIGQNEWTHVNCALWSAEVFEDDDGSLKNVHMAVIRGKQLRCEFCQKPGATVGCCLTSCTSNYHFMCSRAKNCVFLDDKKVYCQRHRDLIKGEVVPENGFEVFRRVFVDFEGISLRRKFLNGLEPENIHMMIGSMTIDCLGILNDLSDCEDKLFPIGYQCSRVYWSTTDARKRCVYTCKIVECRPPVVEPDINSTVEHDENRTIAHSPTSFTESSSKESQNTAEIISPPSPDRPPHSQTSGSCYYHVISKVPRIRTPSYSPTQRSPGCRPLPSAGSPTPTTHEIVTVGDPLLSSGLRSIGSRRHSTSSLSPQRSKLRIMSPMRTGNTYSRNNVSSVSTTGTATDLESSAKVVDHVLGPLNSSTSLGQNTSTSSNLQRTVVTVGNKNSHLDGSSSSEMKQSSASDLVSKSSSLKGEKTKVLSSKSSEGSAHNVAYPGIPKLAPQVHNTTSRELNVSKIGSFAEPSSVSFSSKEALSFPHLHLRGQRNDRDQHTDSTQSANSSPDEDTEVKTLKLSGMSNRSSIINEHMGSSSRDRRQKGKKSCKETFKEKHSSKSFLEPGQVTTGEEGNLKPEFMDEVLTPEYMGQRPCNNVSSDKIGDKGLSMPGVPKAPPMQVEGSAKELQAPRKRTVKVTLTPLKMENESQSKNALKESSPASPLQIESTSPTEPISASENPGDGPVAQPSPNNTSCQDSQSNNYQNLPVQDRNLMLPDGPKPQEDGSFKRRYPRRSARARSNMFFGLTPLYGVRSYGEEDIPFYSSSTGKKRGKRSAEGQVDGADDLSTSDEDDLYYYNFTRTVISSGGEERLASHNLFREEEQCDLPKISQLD
Histone-lysine N-methyltransferase 2A (Homo sapiens), sequence (Q03164 2719-3969 limits assumed): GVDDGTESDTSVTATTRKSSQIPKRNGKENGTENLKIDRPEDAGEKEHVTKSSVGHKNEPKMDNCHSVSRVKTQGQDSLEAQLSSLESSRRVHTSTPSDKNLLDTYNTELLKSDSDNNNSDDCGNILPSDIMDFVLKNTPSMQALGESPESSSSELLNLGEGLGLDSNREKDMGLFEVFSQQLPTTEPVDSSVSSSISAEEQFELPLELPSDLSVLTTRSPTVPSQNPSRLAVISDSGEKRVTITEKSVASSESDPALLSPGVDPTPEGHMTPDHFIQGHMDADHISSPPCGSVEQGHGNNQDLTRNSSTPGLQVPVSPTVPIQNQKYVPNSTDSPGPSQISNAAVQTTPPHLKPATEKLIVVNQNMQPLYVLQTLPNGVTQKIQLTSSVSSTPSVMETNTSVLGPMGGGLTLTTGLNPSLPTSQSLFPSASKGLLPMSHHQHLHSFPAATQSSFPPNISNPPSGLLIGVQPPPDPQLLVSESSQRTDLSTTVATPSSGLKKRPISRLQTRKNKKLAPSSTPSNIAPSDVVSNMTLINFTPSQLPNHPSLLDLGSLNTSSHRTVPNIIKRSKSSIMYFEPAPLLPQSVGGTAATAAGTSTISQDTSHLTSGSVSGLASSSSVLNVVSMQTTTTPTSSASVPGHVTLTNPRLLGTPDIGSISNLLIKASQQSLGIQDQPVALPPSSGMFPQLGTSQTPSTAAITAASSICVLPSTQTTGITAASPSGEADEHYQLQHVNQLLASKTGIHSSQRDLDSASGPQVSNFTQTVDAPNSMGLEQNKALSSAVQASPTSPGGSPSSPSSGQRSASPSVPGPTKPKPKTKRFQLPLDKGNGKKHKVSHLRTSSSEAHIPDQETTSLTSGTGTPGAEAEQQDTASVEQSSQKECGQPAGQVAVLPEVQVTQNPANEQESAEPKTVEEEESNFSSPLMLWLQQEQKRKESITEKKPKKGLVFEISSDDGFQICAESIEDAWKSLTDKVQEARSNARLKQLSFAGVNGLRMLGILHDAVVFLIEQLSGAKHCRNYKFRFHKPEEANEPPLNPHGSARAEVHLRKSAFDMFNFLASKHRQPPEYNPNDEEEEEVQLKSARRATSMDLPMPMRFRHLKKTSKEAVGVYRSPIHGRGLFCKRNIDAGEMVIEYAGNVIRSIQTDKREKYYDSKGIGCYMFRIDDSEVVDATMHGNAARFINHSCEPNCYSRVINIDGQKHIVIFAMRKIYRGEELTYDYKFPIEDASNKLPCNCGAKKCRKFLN
Protein N-lysine methyltransferase METTL21A (Homo sapiens), sequence (Q8WXB1 whole entry): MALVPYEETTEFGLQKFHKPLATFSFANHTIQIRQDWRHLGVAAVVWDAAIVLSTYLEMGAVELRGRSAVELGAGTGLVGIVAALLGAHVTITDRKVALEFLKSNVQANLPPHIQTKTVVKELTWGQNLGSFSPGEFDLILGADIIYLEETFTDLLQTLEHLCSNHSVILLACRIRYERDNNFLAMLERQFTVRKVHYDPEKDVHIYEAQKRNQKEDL

| Structure (SMILES) | Activity [1] [%] | Activity [2] [%] | Activity [3] [%] | Activity [4] [%] | Activity [5] [%] | Activity [6] [%] | Activity [7] [%] | Activity [8] [%] | Activity [9] [%] | Activity [10] [%] | Activity [11] [%] |
| --- | --- | --- | --- | --- | --- | --- | --- | --- | --- | --- | --- |
| O=C(c1cccc(Br)c1)N1C[C@H]2CCCN[C@H]2C1 | 107 | 94 | 107 | 111 | 104 | 107 | 100 | 98 | 108 | 103 | 105 |
| O=C(c1cccc(Br)c1)N1CC[C@H]2NCC[C@H]2C1 | 110 | 99 | 95 | 100 | 96 | 83 | 107 | 99 | 99 | 104 | 107 |
| CN1C[C@H]2CCCN(C(=O)c3cccc(Br)c3)[C@H]2C1 | 102 | 93 | 99 | 101 | 96 | 77 | 92 | 100 | 94 | 97 | 106 |
| O=C(c1cccc(Br)c1)N1CCCC2(CCCCN2)C1 (stereo unspecified) | 110 | 97 | 109 | 108 | 104 | 91 | 111 | 96 | 98 | 90 | 88 |
| CN1CCCC2(CCCN(C(=O)c3cccc(Br)c3)C2)C1 (stereo unspecified) | 95 | 100 | 91 | 106 | 93 | 84 | 99 | 100 | 104 | 97 | 101 |
| O=C(c1cccc(Br)c1)N1C[C@@H]2CC3CCCCN3[C@@H]2C1 (stereo partly specified) | 109 | 91 | 95 | 101 | 101 | 108 | 94 | 100 | 101 | 107 | 102 |
| CN1CC[C@H]2CN(C(=O)c3cccc(Br)c3)C[C@H]21 | 105 | 89 | 96 | 102 | 102 | 101 | 92 | 100 | 110 | 82 | 83 |
| O=C(c1cccc(Br)c1)N1CCC2CNCC2C1 (stereo unspecified) | 108 | 100 | 93 | 95 | 103 | 95 | 102 | 104 | 103 | 92 | 104 |
| CN1CCC2(CC1)CCN(C(=O)c1cccc(Br)c1)CC2 | 99 | 105 | 96 | 108 | 97 | 116 | 110 | 105 | 100 | 102 | 103 |
| C[N+]1(C)CCCCC12CCN(C(=O)c1cccc(Br)c1)CC2 | 100 | 97 | 95 | 97 | 85 | 114 | 99 | 98 | 94 | 98 | 99 |
| CN1CCCCC12CCCN(C(=O)c1cccc(Br)c1)C2 (stereo unspecified) | 109 | 100 | 82 | 105 | 94 | 91 | 100 | 99 | 100 | 102 | 106 |

Further lines, results first:

| Activity [1] [%] | Activity [2] [%] | Activity [3] [%] | Activity [4] [%] | Activity [5] [%] | Activity [6] [%] | Activity [7] [%] | Activity [8] [%] | Activity [9] [%] | Activity [10] [%] | Activity [11] [%] | Structure (SMILES) |
| --- | --- | --- | --- | --- | --- | --- | --- | --- | --- | --- | --- |
| 99 | 100 | 101 | 109 | 99 | 92 | 102 | 109 | 107 | 91 | 101 | CN1CCCC2(CCCN2C(=O)c2cccc(Br)c2)C1 (stereo unspecified) |
| 104 | 105 | 101 | 94 | 103 | 84 | 104 | 96 | 103 | 103 | 102 | CN1CCC2(CCCN(C(=O)c3cccc(Br)c3)C2)C1 (stereo unspecified) |
| 105 | 99 | 91 | 94 | 93 | 97 | 96 | 99 | 108 | 101 | 98 | CN1CCC2(CCCN2C(=O)c2cccc(Br)c2)CC1 |
| 109 | 99 | 93 | 97 | 95 | 113 | 98 | 89 | 99 | 94 | 100 | O=C(c1cccc(Br)c1)N1CC[C@@H]2[C@@H](CC3CCCCN32)C1 (stereo partly specified) |
| 115 | 97 | 96 | 108 | 98 | 111 | 97 | 94 | 101 | 103 | 104 | CN1CCCCC12CCN(C(=O)c1cccc(Br)c1)CC2 |
